Data: patent publication US20230040386A1, “URSODEOXYCHOLIC ACID-CONTAINING AGENT FOR TREATING OR PREVENTING PRESBYOPIA” (priority 2018, published 2023)

Columns and labels:
lens [1] = assay: Pharmacological Test 3: lens elasticity after instillation of ursodeoxycholic acid (free form); type: in vivo, C57BL/6J mice; settings: 2.5 μL/eye, 3 times per day, 12 to 15 days, vs vehicle control
Protocol: A vehicle comprising 0.1% (w/v) of ethyl pyruvate, 0.269% (w/v) of sodium dihydrogenphosphate monohydrate (NaH2PO4H2O), 0.433% (w/v) of disodium hydrogenphosphate (Na2HPO4), 0.2% (w/v) of hydroxypropyl methylcellulose, and 0.5% (w/v) of NaCl was prepared. Ursodeoxycholic acid was sonicated with the addition of the vehicle to prepare a 1.5% (w/v) suspension. The resulting 1.5% (w/v) suspension was diluted with the vehicle to prepare a 0.5% (w/v) suspension. Further, the resulting 0.5% (w/v) suspension was diluted with the vehicle to prepare a 0.15% (w/v) suspension. The total amount of each sample to be used in one day was prepared before use. EV06 was sonicated with the addition of the vehicle to prepare a 1.5% (w/v) solution. The total amount of the sample to be used in one day was prepared before use. 1) Each test sample (2.5 μL/eye) was instilled into the right eye of 8-month-old C57BL/6J mice with a Pipetman 3 times per day (around 9:00, 13:00 and 17:00) for 12 to 15 days. 2) After the final instillation, the mice were euthanized by carbon dioxide inhalation, and then the eyeballs were extracted and rinsed with Hank's balanced salt solution (HBSS). 3) The sclera near the optic nerve was cut with a razor, the lens was removed through the incision, and the removed lens was immersed in HBSS. 4) The lens was placed on a glass slide, and an all-in-one fluorescence microscope BZ-9000 (Keyence) was used to capture an image of the lens (Image a). 5) Next, one cover glass (Corning^(registered trade mark) 22×22 mm Square) was placed on the lens, and an image in which the thickness of the lens changed due to the weight was similarly captured (image b). 6) A change in the lens diameter was calculated from Equation 1 wherein the lens diameter of Image a is subtracted from the lens diameter of Image b, as described below. Then, the lens elasticity improvement of each sample group compared with the vehicle control group was calculated from Equation 2 described below. The mean of the vehicle control group was based on 5 eyes, the mean of each ursodeoxycholic acid sample group was based on 10 eyes, and the mean of the EV06 sample group was based on 10 eyes. Change in lens diameter=Lens diameter in Image b of each test sample−Lens diameter in Image a of each test sample (Equation 1) Lens elasticity improvement of each sample group=Mean change in lens diameter of each Test sample group−Mean change in lens diameter of Vehicle control group (Equation 2)

lens [2] = assay: Pharmacological Test 4: lens elasticity, once-daily instillation of ursodeoxycholic acid for 2 weeks; type: in vivo, C57BL/6J mice; settings: 14 days; for Lens elasticity improvement: vs vehicle control; for Lens elasticity improvement, in words: instilled once-daily, 1% and 3% ursodeoxycholic acid samples, 1.5% EV06 sample
Protocol: A vehicle comprising 0.1% (w/v) of ethyl pyruvate, 0.269% (w/v) of sodium dihydrogenphosphate monohydrate (NaH2PO4H2O), 0.433% (w/v) of disodium hydrogenphosphate (Na2HPO4), 0.2% (w/v) of hydroxypropyl methylcellulose, 0.5% (w/v) of NaCl was prepared. Ursodeoxycholic acid was sonicated with the addition of the vehicle to prepare a 3.0% (w/v) suspension. The resulting 3.0% (w/v) suspension was diluted with the vehicle to prepare a 1.0% (w/v) suspension. Further, the resulting 1.0% (w/v) suspension was diluted with the vehicle to prepare a 0.3% (w/v) suspension. The total amount of each sample to be used in one day was prepared before use. EV06 was sonicated with the addition of the vehicle to prepare a 1.5% (w/v) solution. The total amount of the sample to be used in one day was prepared before use. 1) Each test sample (2.5 μL/eye) was instilled into the right eye of 8-month-old C57BL/6J mice with a Pipetman once per day (QD; around 9:00), twice per day (BID; around 9:00 and 17:00), or 3 times per day (TID; around 9:00, 13:00 and 17:00) for 14 days. 2) After the final instillation, the mice were euthanized by carbon dioxide inhalation, and then the eyeballs were extracted and rinsed with Hank's balanced salt solution (HBSS). 3) The sclera near the optic nerve was cut with a razor, the lens was removed through the incision, and the removed lens was immersed in HBSS. 4) The lens was placed on a glass slide, and an all-in-one fluorescence microscope BZ-9000 ([…]) was used to capture an image of the lens (image a). 5) Next, one cover glass (Corning^(registered trade mark) 22×22 mm Square) was placed on the lens, and an image in which the thickness of the lens changed due to the weight was similarly captured (Image b). 6) A change in the lens diameter was calculated from Equation 1 wherein the lens diameter of Image a is subtracted from the lens diameter of Image b, as described below. Then, the lens elasticity improvement of each sample group compared with the vehicle control group was calculated from Equation 2 described below. The mean of the vehicle control group was based on 5 eyes, the mean of each ursodeoxycholic acid sample group was based on 10 eyes, and the mean of each EV06 sample group was based on 10 eyes. Change in lens diameter=Lens diameter in Image b of each test sample-Lens diameter in Image a of each test sample (Equation 1) Lens elasticity improvement of each sample group=Mean change in lens diameter of each Test sample group-Mean change in lens diameter of Vehicle control group (Equation 2)

[3] = system: anterior segment of the eye; assay: Ocular Irritation Test (McDonald-Shadduck method, lens observation, histopathology); type: in vivo, Japanese White rabbits
Protocol: A vehicle (aqueous solution) comprising 0.1% (w/v) of ethyl pyruvate, 0.269% (w/v) of sodium dihydrogenphosphate monohydrate ([…]), 0.433% (w/v) of disodium hydrogenphosphate (Na2HPO4), 0.2% (w/v) of hydroxypropyl methylcellulose, 0.5% (w/v) of NaCl was prepared.
Group treated with an ophthalmic suspension of ursodeoxycholic acid 1% (w/v), 3% (w/v), and 10% (w/v) ursodeoxycholic acid ophthalmic suspensions were prepared in the same manner as in the above pharmacological tests. These ophthalmic suspensions and the vehicle were each instilled into the left eye of Japanese White rabbits at a dose of 50 μL/eye with pipette twice per day at a 6-hour interval for 2 weeks. One hour after the final instillation, ocular irritation of anterior segment of the eye was evaluated according to the McDonald-Shadduck method, and the lens was observed. The contralateral eye was untreated.
The ocular irritation of anterior segment of the eye was scored according to the following criteria:
+1: mild; +2: moderate; +3: severe.

[4] = after 2 week-repeated instillation of 1%, 3%, 10% ophthalmic suspensions

Row | Compound | Lens elasticity improvement (lens [1]; 0.15% (w/v) sample) [μm] | Lens elasticity improvement (lens [1]; 0.5% (w/v) sample) [μm] | Lens elasticity improvement (lens [1]; 1.5% (w/v) sample) [μm] | Lens elasticity improvement (lens [2]; 0.3% (w/v) sample, QD) [μm] | Lens elasticity improvement (lens [2]; 1% (w/v) sample, QD) [μm] | Lens elasticity improvement (lens [2]; 3% (w/v) sample, QD) [μm] | Lens elasticity improvement, in words (lens [2]) | Histopathological examination of the eyes, in words [3, 4] | Observation of ocular irritation of anterior segment of the eye and lens observation, in words [3, 4] | Safety of the ophthalmic suspensions, in words ([3]; rabbit, in vivo) | Lens elasticity improvement (lens [2]; 1.5% (w/v) sample, BID) [μm] | Lens elasticity improvement (lens [2]; 1.5% (w/v) sample, QD) [μm] | Lens elasticity improvement (lens [2]; 1.5% (w/v) sample, TID) [μm]
1 | C[C@H](CCC(=O)O)[C@H]1CC[C@H]2[C@@H]3[C@@H](O)C[C@@H]4C[C@H](O)CC[C@]4(C)[C@H]3CC[C@]12C [ursodeoxycholic acid, 3α,7β-Dihydroxy-5β-cholan-24-oic acid] | 31.8 | 39.4 | 59.9 | 2.8 | 28.1 | 30.4 | potent lens elasticity improvement | no abnormal findings | no abnormal findings | highly safe |  |  | 
2 | C[N+](C)(C)CCOC(=O)CCCC[C@@H]1CCSS1 [EV06, lipoic acid choline ester] |  |  | 42.5 |  |  |  | no effect |  |  |  | 15.7 | −3.6 | 29.5
